Measurements reported in patent US9303015B2, “Heteroaryl linked quinolinyl modulators of RORγt” (Janssen Pharmaceutica NV, priority 2012, dated 2016).
Counter-ions that a name gives are not always drawn.

Tests used:
[1] = target: human RORγt ligand binding domain (RORγt LBD) (Homo sapiens (Human), UniProt P51449); experiment: RORγt ThermoFluor assay (thermal shift, binding affinity); conditions: estimated from thermal shift concentration response
Experimental: This approach is applicable to a wide variety of systems, and rigorous in theoretical interpretation through quantitation of equilibrium binding constants (KD).
The shift in the melting point described as a ΔTm is proportional to the concentration and affinity of the ligand.
ThermoFluor® experiments were carried out using instruments owned by Janssen Research and Discovery, L.L.C. through its acquisition of 3-Dimensional Pharmaceuticals, Inc. 1,8-ANS (Invitrogen) was used as a fluorescent dye. Protein and compound solutions are dispensed into black 384-well polypropylene PCR microplates (Abgene) and overlayed with silicone oil (1 μL, Fluka, type DC 200) to prevent evaporation.
Bar-coded assay plates are robotically loaded onto a thermostatically controlled PCR-type thermal block and then heated at a typical ramp-rate of 1° C./min for all experiments. Fluorescence was measured by continuous illumination with UV light (Hamamatsu LC6) supplied via fiber optic and filtered through a band-pass filter (380-400 nm; >60D cutoff). Fluorescence emission of the entire 384-well plate was detected by measuring light intensity using a CCD camera (Sensys, Roper Scientific) filtered to detect 500±25 nm, resulting in simultaneous and independent readings of all 384 wells. Images were collected at each temperature, and the sum of the pixel intensity in a given area of the assay plate was recorded versus temperature. Reference wells contained RORγt without compounds, and the assay conditions were as follows: • 0.065 mg/mL RORγt • 60 μM 1,8-ANS • 100 mM Hepes, pH 7.0 • 10 mM NaCl • 2.5 mM GSH • 0.002% Tween-20
Project compounds were arranged in a pre-dosed mother plate (Greiner Bio-one) wherein compounds are serially diluted in 100% DMSO by 1:2 from a high concentration of 10 mM over 12 columns within a series (column 12 is a reference well containing DMSO, no compound). The compounds were robotically dispensed directly into assay plates (1x=[…]) using a Hummingbird capillary liquid handling instrument (Digilab). Following compound dispense, protein and dye in buffer was added to achieve the final assay volume of 3 μL, followed by 1 μL of silicone oil.

human RORγt LBD = human RORγt LBD (Homo sapiens (Human), UniProt P51449); experiment: RORγt reporter assay (GAL4-RORγt LBD luciferase, HEK293T cells); format: cell-based; conditions: for IC50: HEK293T cells, 24 hours compound treatment; for inhibition at 6 µM: HEK-293T, read-out: RORγt reporter Assay, % inhibition @ 6 μM, 6 μM, HEK293T cells
Sequence of human RORγt LBD (P51449 258-518): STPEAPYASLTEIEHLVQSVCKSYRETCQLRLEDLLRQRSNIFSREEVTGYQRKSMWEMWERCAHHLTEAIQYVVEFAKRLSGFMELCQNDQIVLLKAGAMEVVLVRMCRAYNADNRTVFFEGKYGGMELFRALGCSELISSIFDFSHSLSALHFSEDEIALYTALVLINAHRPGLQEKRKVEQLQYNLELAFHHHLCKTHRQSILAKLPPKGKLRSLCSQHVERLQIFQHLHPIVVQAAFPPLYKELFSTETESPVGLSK

[2] = system: IL-17 production by CD4 T cells; experiment: Human Th17 assay; format: cell-based; conditions: Homo sapiens, CD4+ T, 72 h, IL-17 in supernatant after 3 days, human CD4+ T cells under Th17 differentiation
Description: The human Th17 assay tests the effect of RORγt modulatory compounds on IL-17 production by CD4 T cells under conditions which favor Th17 differentiation.
Total CD4^+ T cells were isolated from the peripheral blood mononuclear cells (PBMC) of healthy donors using a CD4^+ T cell isolation kit II, following the manufacturer's instructions (Miltenyi Biotec). Cells were resuspended in a medium of RPMI-1640 supplemented with 10% fetal bovine serum, penicillin, streptomycin, glutamate, and β-mercaptoethanol and were added to 96-well plates at 1.5×10^5 per 100 μL per well. 50 μL of compound at titrated concentrations in DMSO were added into each well at final DMSO concentration at 0.2%. Cells were incubated for 1 hour, then 50 μL of Th17 cell differentiation medium was added to each well. The final concentrations of antibodies and cytokines (R&D Systems) in differentiation medium were: 3×10^6/mL anti-CD3/CD28 beads (prepared using human T cell activation/expansion kit, Miltenyi Biotec), 10 μg/mL anti-IL4, 10 μg/mL anti-IFNγ, 10 ng/mL IL113, 10 ng/mL IL23, 50 ng/mL IL6, 3 ng/mL TGFβ and 20 U/mL IL2. Cells were cultured at 37° C. and 5% CO2 for 3 days. Supernatants were collected and the accumulated IL-17 in culture was measured by using MULTI-SPOT® Cytokine Plate following manufacture's instruction (Meso Scale Discovery). The plate was read using Sector Imager 6000, and IL-17 concentration was extrapolated from the standard curve. The IC50s were determined by GraphPad.

Sequence of human RORγt ligand binding domain (RORγt LBD) (P51449 other isoform, or with tags, fused parts or gaps): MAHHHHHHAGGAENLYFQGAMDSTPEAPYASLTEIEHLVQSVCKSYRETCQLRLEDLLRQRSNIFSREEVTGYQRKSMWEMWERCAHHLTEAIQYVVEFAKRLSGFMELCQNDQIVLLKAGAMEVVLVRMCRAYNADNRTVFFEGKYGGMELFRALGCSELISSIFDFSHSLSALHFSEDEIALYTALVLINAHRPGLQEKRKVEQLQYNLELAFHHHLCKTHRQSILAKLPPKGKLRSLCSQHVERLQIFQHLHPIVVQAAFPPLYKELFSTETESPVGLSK

SMILES	Kd [1]	IC50 (human RORγt LBD)	inhibition at 6 µM (human RORγt LBD)	IC50 [2]
CCN(CC)c1nc2ccc(C(O)(c3ccc(Cl)cc3)c3cncn3C)cc2c(Cl)c1Oc1ccccc1 (stereo not shown) [Example 3a, (4-Chloro-2-(diethylamino)-3-phenoxyquinolin-6-yl)(4-chlorophenyl)(1-methyl-1H-imidazol-5-yl)methanol]	0.059 µM	0.12 µM	96%	0.2 µM
CN(C)c1nc2ccc(C(O)(c3ccc(Cl)cc3)c3cncn3C)cc2c(Cl)c1Oc1ccccc1 (stereo not shown) [Example 16, (4-Chloro-2-(dimethylamino)-3-phenoxyquinolin-6-yl)(4-chlorophenyl)(1-methyl-1H-imidazol-5-yl)methanol]	0.031 µM	0.36 µM	94%	0.1 µM
Cn1cncc1C(O)(c1ccc(Cl)cc1)c1ccc2nc(C#N)c(Oc3ccccc3)c(C#N)c2c1 (stereo not shown) [Example 20, 6-((4-chlorophenyl)(hydroxy)(1-methyl-1H-imidazol-5-yl)methyl)-3-phenoxyquinoline-2,4-dicarbonitrile.TFA]	0.0057 µM	0.11 µM	97%	0.04 µM
CCOc1nc2ccc(C(O)(c3cccnc3)c3cccc(Cl)c3)cc2c(Cl)c1N(C)c1ccccc1 (stereo not shown) [Example 36, (4-Chloro-2-ethoxy-3-(methyl(phenyl)amino)quinolin-6-yl)(3-chlorophenyl) (pyridin-3-yl)methanol.TFA]	0.032 µM	0.089 µM	89%	0.16 µM
CCN(CC)c1nc2ccc(C(O)(c3ccc(Cl)cc3)c3cncn3C)cc2c(Cl)c1Nc1ccccc1 (stereo not shown) [Example 45, (4-Chloro-2-(diethylamino)-3-(phenylamino)quinolin-6-yl)(4-chlorophenyl)(1-methyl-1H-imidazol-5-yl)methanol.TFA]	0.27 µM	0.81 µM	91%	–
